Series [1] concerns Mus musculus. As to conditions: subchronic, oral; for NOAEL: M/F, CD1, Hepatic.
The test system of series [2] is Rattus norvegicus.
For series [3], the system named is Mus musculus. As to conditions: subchronic, duration: 90 days, oral, M/F, CD1, hepatic.
Series [4] deals with Mus musculus. As to conditions: M/F.
The subject of series [5] is Rattus norvegicus. As to conditions: subchronic, oral, diet.
The test system of series [6] is Cavia porcellus. The following applies: acute, Guinea Pig.
Series [7] deals with Rattus norvegicus. As to conditions: for LD50 / LC50: acute.
Series [8] relates to Oryctolagus sp. As to conditions: for LD50: acute, dermal; for NOAEL: reproduction developmental, duration: 13 days, oral, gavage.
Series [9] concerns Mus musculus. As to conditions: for LD50: acute.
Series [10] relates to Rattus norvegicus. Nature of the series: LC0; higher = less toxic. As to conditions: acute.
Series [11] deals with Microhyla ornata. As to conditions: short-term, whole body.
In series [12] the test system is Mus musculus.
Series [13] relates to Rattus norvegicus. The following applies: chronic, duration: 2 years, oral.
Series [14] deals with Rattus norvegicus. As to conditions: chronic, M/F.
[15] abbreviates: subchronic, oral, drinking water, clinical serum chemistry (effects on erythrocytes and reduced humoral immune status).
The mark [16] stands for this setting: subchronic, oral, gavage, dyspnea, abnormal appearance, liver enlargement.
Where [17] appears, read: duration: 13 weeks, M/F, Fischer 344, Body Weight Changes: Body weight gain decrease + Food Consumption: decrease + Hematology: MCH decrease MCV decrease + Blood Chemistry: T-….
[18] abbreviates: subchronic, duration: 90 days, oral, diet, Fischer 344.
Setting [19] is: reproduction developmental, injection, Intraperitoneal, generation: F1.
The mark [20] stands for this setting: subchronic, oral, reduced rbc, packed cell volume and hemoglobin.
The mark [21] stands for this setting: subchronic, inhalation, reduced body weight.
[22] abbreviates: inhalation, nasal epithelial lesions.
The mark [23] stands for this setting: chronic, duration: 104 weeks, oral, diet, reduced hemoglobin and erythrocyte destruction.

Where “and” joins values, the source holds several entries; their conditions need not be identical. Identical values can stand only once.

With `ClCC(Cl)Cl` [1,1,2-Trichloroethane], the NOAEL amounted to 3.9 mg/kg-day in [1] (duration: 90 days, drinking water, Other); 46 mg/kg-day in series [2] (acute, duration: 1 days, oral, gavage, M, Sprague-Dawley, hepatic); 3.9 mg/kg-day in series [3] (drinking water, immunological); 3.9 mg/kg-day in [4] (setting [15]). In addition, the lowest observed adverse effect level (LOAEL) in series [2] (acute, duration: 4 hours, inhalation, whole body, M/F, Fischer 344, respiratory) was 316 mg/m3; in series [4] (setting [15]) it was 44 mg/kg-day.

As for `Clc1ccc2ccccc2c1` [2-Chloronaphthalene], the NOAEL in series [1] (duration: 13 weeks, gavage, Respiratory) was 250 mg/kg-day; in series [4] (setting [16]) it was 250 mg/kg-day. Besides, the LOAEL in series [4] (setting [16]) worked out at 600 mg/kg-day.

For the compound `CCCCC(CC)C(=O)O` (stereo unspecified) [2-Ethylhexanoic acid], the NOAEL in [5] (setting [17]) amounted to 0.5%; in [7] (reproduction developmental, duration: 10 days, oral, gavage, F, Fischer 344), 250 mg/kg-day; in series [7] (reproduction developmental, duration: 14 days, oral, drinking water, F, Wistar), 300 mg/kg-day; in series [7] (reproduction developmental, oral, Sprague-Dawley, generation: F1), 446 mg/kg-day; in series [7] (reproduction developmental, oral, drinking water, Wistar, generation: F0) it was 300 mg/kg-day; in series [7] (reproduction developmental, oral, drinking water, Wistar, generation: F1) it was 100 mg/kg-day. For the same compound, the NOAEL came out at 900 mg/kg-day in series [7] (reproduction developmental, oral, gavage, Wistar, generation: F1); 200 mg/kg-day in [7] (short-term, duration: 2 weeks, oral, gavage, F, Fischer 344); 200 mg/kg-day in series [7] (short-term, duration: 2 weeks, oral, gavage, M, Fischer 344); 300 mg/kg-day in [7] (subchronic, duration: 13 weeks, oral, diet, Fischer 344); 25 mg/kg-day in series [8] (F, New Zealand); 250 mg/kg-day in [8] (New Zealand, generation: F1). The NOAEL in series [9] (reproduction developmental, injection, Intraperitoneal, NMRI, generation: F1) was 500 mg/kg-day; in [9] (setting [19]), at most 1150 mg/kg-day; in series [9] (short-term, duration: 2 weeks, oral, gavage, F, B6C3F1), 1600 mg/kg-day; in [9] (short-term, duration: 2 weeks, oral, gavage, M, B6C3F1), 800 mg/kg-day. In addition, the NOEL was 0.1% in series [5] (setting [17]); under 71 mg/kg-day in series [5] (F, F344/CrjBR, Body Weight Changes: decrease + Food Consumption: decrease + Blood Chemistry: Cho increase , Alb increase + Absolute Organ Weight: Liver …); under 0.1% in series [5] (M/F, F344/CrjBR, Body Weight Changes: decrease + Food Consumption: decrease + Blood Chemistry: Cho increase , Alb increase + Absolute Organ Weight: Liver …). The LD50 is 6300 mg/kg and 5700 mg/kg and 4550 mg/kg in [6] (dermal); 6500 mg/kg and ≥ 5000 mg/kg and ≤ 10000 mg/kg in series [6] (dermal, occlusive); over 2000 mg/kg in series [7] (dermal); ≥ 1600 mg/kg and ≤ 3200 mg/kg in series [7] (oral, gavage); ≥ 1600 mg/kg and ≤ 3200 mg/kg in series [7] (oral, gavage, Sprague-Dawley); 1260 mg/kg in [8]. Moreover, the LD50 in [9] (injection, Intraperitoneal) stood at 270 mg/kg; in series [9] (injection, subcutaneous), 910 mg/kg. Besides, the LC50 in series [6] (inhalation) is over 2.39 µg/mL; in series [7] (inhalation), over 0.015 µg/mL. In [7] (reproduction developmental, oral, F, Sprague-Dawley), this compound registered an LOAEL of 446 mg/kg-day. For the same compound, in series [7] (setting [18]), the “LOAEL (% diet)” value was found to be 0.5. In addition, the “NOAEL (% diet)” value came to 0.1 in series [7] (setting [18]); 5 in series [7] (subchronic, oral, diet, Fischer 344); 1 in [9] (repeat dose other, oral, diet). Besides, in series [9] (setting [19]), the LOAEC was found to be 1730 mg/kg-day. This compound also displayed an LC0 in series [10] (inhalation) of 2.36 mg/L.

As for `Cc1cccnc1` [3-Methylpyridine], the LC50 in series [7] (inhalation, Sprague-Dawley) is under 11800 µg/mL. Moreover, the LD50 in series [7] (oral, gavage, Fischer 344) was 630 mg/kg; in series [7] (oral, gavage, Sprague-Dawley) it was 710 mg/kg; in series [8] (occlusive, New Zealand), ≥ 126 mg/kg and ≤ 200 mg/kg. For the same compound, in series [7] (short-term, duration: 2 weeks, inhalation, Crl:CD(SD) BR), the lowest observed adverse effect level (LOAEL) stood at 1100 mg/m3. For the same compound, the LC0 in [10] (inhalation, Crl:CD(SD) BR) is ≥ 4950 mg/m3 and ≤ 12600 mg/m3.

On to `Nc1ccc(C=Cc2ccc(N)cc2S(=O)(=O)O)c(S(=O)(=O)O)c1` [4,4'-Diamino-2,2'-stilbenedisulfonic acid], for which, in [6] (oral), the LD50 is 47000 mg/kg. Also, the NOAEL is 1000 mg/kg-day in series [7] (reproduction developmental, oral, gavage, Sprague-Dawley, generation: F0) and 1000 mg/kg-day in series [7] (reproduction developmental, oral, gavage, Sprague-Dawley, generation: F1). Besides, the LC0 in [10] (oral, Sprague-Dawley) is 3000 mg/kg.

With `Cc1cc(C(C)(C)c2cc(C)c(O)c(C)c2)cc(C)c1O` [4,4'-Propane-2,2-diylbis(2,6-dimethylphenol)], the LOEL is 1 µM in series [11] (duration: 9 day, M/F, DNA fragmentation) and 1 µM in series [11] (duration: 11 day, EGFP activitiy).

In the case of `c1ccc2c(c1)Cc1ccccc1-2` [Fluorene], the LOAEL turned out to be 125 mg/kg-day in series [3] (gavage) and 250 mg/kg-day in series [4] (setting [20]). In addition, the NOAEL amounted to 125 mg/kg-day in [12] (subchronic, duration: 13 weeks, oral, gavage, Erythrocytes: Decreased counts) and 125 mg/kg-day in [4] (setting [20]).

Consider `P` [Phosphine], for which the NOEL came to 0.026 mg/kg-day in series [13] (diet); 0.026 mg/kg-day in [14] (oral, body weight and clinical parameters). In addition, the NOAEL in [12] (subchronic, duration: 13 weeks, inhalation, intermittent, Whole body: Decreased weight) came out at 1.4 mg/m3; in series [4] (setting [21]), 1.4 mg/m3. The same compound showed an LOAEL in series [4] (setting [21]) of 6.3 mg/m3.

Regarding `C=COC(C)=O` [Vinyl acetate], the NOAEL is 174 mg/m3 in series [2] (chronic, duration: 104 weeks, inhalation, whole body, M/F, Crl:CD(SD)BR Sprague-Dawley, respiratory); 703 mg/m3 in series [2] (short-term, duration: 4 weeks, inhalation, whole body, M, Sprague-Dawley (Crl:CD BR), respiratory); 703 mg/m3 in [2] (short-term, duration: 5 days, inhalation, whole body, M, Sprague-Dawley (Crl:CD BR), respiratory); 100 mg/kg-day in series [13] (drinking water, Kidney: Altered weight + Whole body: Altered weight); 176 mg/m3 in series [12] (chronic, duration: 104 weeks, inhalation, intermittent, Nasal cavity: Lesions); 176 mg/m3 in series [14] (setting [22]). Also, the LOAEL in [14] (setting [22]) turned out to be 704 mg/m3.

In turn, `CC(CCl)OC(C)CCl` (stereo unspecified) [bis(2-Chloro-1-methylethyl) ether] registered an LOAEL in series [1] (duration: 13 weeks, gavage, M, SPF-ICR) of 9.69 mg/kg-day. For the same compound, in [4] (setting [23]), the LOAEL was found to be 198 mg/kg-day and the NOAEL was found to be 35.8 mg/kg-day.

By NOAEL is commonly meant the highest dose or exposure tested at which no adverse effect was seen. What is called LOAEL is the lowest dose or exposure tested at which an adverse effect was seen. Broadly, the LD50 is the dose expected to kill half of the subjects tested. The LC50 is the concentration that kills 50% of the test population.

Source of the values: EPA's ToxValDB 9.5.
